Entries after “also recorded” stand apart in the source; their conditions may differ.
How the values were obtained:
[1] = Intrathecal injection in rats, distribution in spinal cord and brain; assay type: in vivo
Protocol: Intrathecal injection of Structure 1 compound in rats was tested. Rats were prepped for intrathecal injection containing 16 nmol of Structure 1 compound at the level of CV2. 24 hrs following the injection the rats were perfused with 4% PFA and frozen cross-sections of the cord were mounted on glass slides and photographed.

[2] = tested on: acute slices of rat retinal and brain tissue; assay: Multi-electrode array electrophysiological screen for neuroprotection against kainate- or NMDA-induced death; assay type: cell-based; conditions: 30 uM; pretreatment, or cotreatment with an NMDA receptor agonist; slices perfused about 30 min with NMDA or kainate agonists
Description: One aspect of the present invention usefully employs electrophysiological screening of Structure 1. Particular attention is drawn to an electrophysiological assay that rapidly screens for compounds which are inhibitors that target neuron-specific PDZ domains. Recordings of cellular activity were made from acute slices of rat retinal and brain tissue to examine the effects of Structure 1 on synaptic Kainate/AMPA, NMDARs and to test for protection against excitotoxic insults. Kainate/AMPA and NMDAR components were distinguished pharmacologically. Noted are the selective AMPA-antagonist NBQX and the competitive NMDA-antagonist CPP. A multi-electrode array was used that enabled examination of activity from sixty neurons simultaneously. This array addressed whether a test compound provided neuroprotection against kainate or N-methyl-D-aspartic acid (NMDA)-induced death. Briefly, slices were perfused for prolonged periods (about 30 min) with NMDA or kainate agonists until activity in half of the neurons is lost and responses cannot be rescued by washing out the NMDA or kainate (assumed to be resulting from neuronal death).

[3] = Uptake in the retina after intravitreal injection of fluorescently tagged compound; assay type: in vivo
Description: Uptake in the retina was observed as follows. […] In numerous populations of retinal neurons located in both the ganglion cell (GCL) and inner nuclear layers.

[4] = tested on: ischemic episode; assay: Therapeutic protocol in stroke (Example 2); assay type: in vivo, human; conditions: 50 mg/Kg i.v. within 2 hours of onset; outcome within 48 hours; person
Protocol: A person presents with an ischemic episode resulting sudden numbness the face, and left arm, confusion, and trouble speaking. […] Doses of from about 1 to about 100 mg/Kg are noted.

[5] = tested on: hippocampal neurons; assay: Excitotoxic insult in hippocampal neurons (loss of functional activity); assay type: cell-based; conditions: co-application with excitotoxic insult
Description: This loss was prevented by the co-application of the compound of Structure 1. Results were confirmatory of the retinal data and extends it into tissues that are more strongly associated with CNS disorders such as Stroke and neurodegenerative diseases. Noted is therapeutic treatment for autism disorders and cognitive decline symptomatology conditions.

[6] = rats, 16 nmol intrathecal at CV2, 24 hrs after injection

Q: For “CONH2-(Arg)7-Cys-Cys-Lys-Asn-Tyr-Lys-c[-Lys-Thr-Glu(βAla)Val [Structure 1]”, which “accumulation in brain regions after cervical intrathecal injection” value [1, 6] is on record?
A: accumulate in cells located in the cortex, hippocampus, brainstem and striatum

Q: And the “crossing of pia mater/brain barrier and accumulation in spinal cord neurons” value [1, 6]?
A: crosses the pia mater/brain barrier and selectively accumulates in neurons located within the gray matter of the cord

Q: And the “crossing of pia mater/brain barrier” value ([1]; tagged with a fluorescent marker, localizes in neurons within retina, spinal cord and brain)?
A: readily cross the pia mater/brain barrier

Q: And the “prevention of neuronal death / cell death” value [2]?
A: provided efficacy and potency in preventing neuronal death; also recorded: prevented cell death

Q: And the “uptake pattern in retina” value ([3]; 1.5-6 nmol, 6 hrs following intravitreal injection)?
A: ~50%

Q: And the “accumulation within ganglion cell axons” value ([3]; intravitreal injection, labeling at the optic nerve head)?
A: selectively accumulated within ganglion cell axons

Q: And the “crossing of vitreal/retina barrier” value ([3]; tagged with a fluorescent marker, administered intravitrealy)?
A: crossed the vitreal/retina barrier

Q: And the “patient outcome after ischemic episode” value [4]?
A: recovers without significant brain damage

Q: What about the “permanent loss of functional activity after excitotoxic insult” value [5] of the same substance?
A: prevented

Source: US20120220535A1, “CYCLIC-GLUR6 ANALOGS, METHODS OF TREATMENT AND USE” (priority 2009, published 2012)
